Where two headings read alike, the source gives them in different places. Numbered stars: 1 amine (or outer) side, 2 acyl side, 3 side chain; on linkers, the order of the positions; unused ones are H or OH. Square brackets hold non-standard residues; d marks the D form. Peptide text beside a SMILES is read from it. * marks the point of attachment. X2 = CNC(=O)Cn1cc(C[C@@H](N[*:1])C(=O)[*:2])c2ccccc21; X6 = COC(=O)Cn1cc(C[C@@H](N[*:1])C(=O)[*:2])c2ccccc21; X4 = O=C1Nc2ccccc2C1C[C@@H](N[*:1])C(=O)[*:2]; dGly(2-thienyl) = N[C@@H](C(=O)O)c1cccs1; Cya = N[C@@H](CS(=O)(=O)O)C(=O)O; Hyp = O=C(O)[C@@H]1C[C@@H](O)CN1; dCya = N[C@H](CS(=O)(=O)O)C(=O)O; dPen = CC(C)(S)[C@@H](N)C(=O)O; dPhg = N[C@@H](C(=O)O)c1ccccc1; dNle = CCCC[C@@H](N)C(=O)O; Pip = O=C(O)[C@@H]1CCCCN1; dNva = CCC[C@@H](N)C(=O)O; Nle = CCCC[C@H](N)C(=O)O; Nva = CCC[C@H](N)C(=O)O; Boc = CC(C)(C)OC(=O)*; βAla = NCCC(=O)O; Moc = COC(=O)*; For = O=C*
Biological target: T1, endothelin receptor (membrane of smooth muscle tissue of porcine aorta) (Sus scrofa, UniProt Q29010)
T1 construct: from tissue; host or cells: smooth muscle tissue of porcine aorta (membrane fraction)
T1 sequence (Q29010 21-427): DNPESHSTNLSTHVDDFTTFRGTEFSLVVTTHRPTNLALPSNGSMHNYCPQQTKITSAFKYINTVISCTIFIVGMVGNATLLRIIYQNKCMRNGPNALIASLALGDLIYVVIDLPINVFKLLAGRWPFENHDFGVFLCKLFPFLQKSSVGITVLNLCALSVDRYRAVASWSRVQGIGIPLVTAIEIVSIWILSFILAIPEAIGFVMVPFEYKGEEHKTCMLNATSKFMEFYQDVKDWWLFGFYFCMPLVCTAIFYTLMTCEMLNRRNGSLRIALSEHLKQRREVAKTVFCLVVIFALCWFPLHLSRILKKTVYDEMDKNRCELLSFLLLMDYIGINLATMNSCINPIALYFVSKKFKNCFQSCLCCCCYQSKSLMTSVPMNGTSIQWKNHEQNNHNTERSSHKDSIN
Assay: Endothelin binding inhibition test (125I-endothelin-1, porcine aorta smooth muscle membrane)
Conditions: for inhibition at 1.1 µM: read-out: 125I-endothelin-1 binding inhibition, Inhibition (%)
Experimental: Endothelin binding inhibition test
The smooth muscle tissue of porcine aorta was homogenized in a buffer solution of 10 mM MOPS, pH 7.4, at 4° C. by a polytron. To the homogenate, sucrose was added to a concentration of 20%, and the mixture was centrifuged at 1,000×g for 15 minutes, and the supernatant was further centrifuged at 10,000×g for 15 minutes. The supernatant thereof was further centrifuged at 90,000×g for 40 minutes. The membrane precipitate thereby obtained was suspended in a buffer solution of 5 mM HEPES/Tris, pH 7.4, at a concentration of 25 mg/ml.
Then, 16 μl of this membrane suspension was added to 340 μl of 50 mM Tris/HCl buffer, pH 7.4, containing 10 μM calcium chloride, 10 μM magnesium chloride, 0.1 mM PMSF, 1 μM pepstatin A, 2 μM leupeptin, 1 mM 1,10-phenanthroline and 0.1% bovine serum albumin. To this suspension, 4 μl of (A) endothelin-1 (for nonspecific binding: 0.2 μM as the final concentration), (B) buffer solution A (for total control binding), or (C) a test compound (1.1 μM as the final concentration), was added. Further, to each suspension, 40 μl of ^125 I-endothelin-1 (12000-18000 cpm) was added. These mixtures were incubated at 25° C for 4 hours, then subjected to filtration on a glass filter GF/C and then washed with 5 mM HEPES/Tris, pH 7.4, containing 0.3% bovine serum albumin. Then, the radioactivity trapped by the glass filter was measured, and the ^125 I-endothelin-1 binding inhibition D (%) at 1.1 μM of the test compound was determined by the following equation. [formula] Each test was performed in triplicate.

[1] = 1.1 μM of the test compound, porcine aorta smooth muscle membrane, 25° C, 4 hours

Row | inhibition at 1.1 µM [1] [%] | Molecule | further results
1 | 83 | CCCC[C@@H]1NC(=O)[C@@H](C(C)C)NC(=O)[C@@H]2CCCN2C(=O)[C@@H](CC(=O)O)NC(=O)[C@@H](Cc2c[nH]c3ccccc23)NC1=O [Example 41, cyclo(-DTrp-DAsp-Pro-DVal-Nle-)] (cyclo([Nle][dW][dD]P[dV])) | –
2 | 34 | CC(C)C[C@@H]1NC(=O)[C@@H](C(C)C)NC(=O)[C@@H]2CCCN2C(=O)[C@@H](CC(=O)O)NC(=O)[C@@H](Cc2cn(C(=O)OC(C)(C)C)c3ccccc23)NC1=O [Example 87, cyclo(-DTrp(COO^t Bu)-DAsp-Pro-DVal-leu-)] (cyclo(L[dW](Boc)[dD]P[dV])) | –
3 | 88 | CC(C)C[C@@H]1NC(=O)[C@@H](c2cccs2)NC(=O)[C@@H]2C[C@@H](O)CN2C(=O)[C@@H](CC(=O)O)NC(=O)[C@@H](Cc2c[nH]c3ccccc23)NC1=O [Example 79, cyclo(-DTrp-DAsp-trans-Hyp-DThg-Leu-)] (cyclo([Hyp][dGly(2-thienyl)]L[dW][dD])) | –
4 | 84 | CCC[C@@H]1NC(=O)[C@@H](C(C)C)NC(=O)[C@@H]2CCCN2C(=O)[C@@H](CC(=O)O)NC(=O)[C@@H](Cc2cn(C=O)c3ccccc23)NC1=O [Example 56, cyclo(-DTrp(CHO)-DAsp-Pro-DVal-Nva-)] (cyclo([Nva][dW](For)[dD]P[dV])) | –
5 | 79 | CCC[C@H]1NC(=O)[C@@H]2CCCN2C(=O)[C@@H](CC(=O)O)NC(=O)[C@@H](Cc2c[nH]c3ccccc23)NC(=O)[C@H](CC(C)C)NC1=O [Example 35, cyclo(-DTrp-DAsp-Pro-DNva-Leu-)] (cyclo(L[dW][dD]P[dNva])) | –
6 | 15 | CC(C)C[C@@H]1NC(=O)[C@@H]([C@H](C)O)NC(=O)[C@H](C)NC(=O)[C@@H](CC(=O)O)NC(=O)[C@@H](Cc2c[nH]c3ccccc23)NC1=O [Example 29, cyclo(-DTrp-DAsp-Ala-DThr-Leu-)] (cyclo(A[dT]L[dW][dD])) | –
7 | 78 | CC(C)C[C@@H]1NC(=O)[C@@H](C(C)C)NC(=O)[C@@H]2CCCN2C(=O)[C@@H](CC(=O)O)NC(=O)[C@@H](CC2C(=O)Nc3ccccc32)NC1=O (stereo partly drawn) [Example 88, cyclo(-DTrp(O)-Dsp-Pro-DVal-Leu-)] (cyclo(L[X4][dD]P[dV])) | –
8 | 80 | CC[C@@H](C)[C@H]1NC(=O)[C@@H]2CCCN2C(=O)[C@@H](CC(=O)O)NC(=O)[C@@H](Cc2c[nH]c3ccccc23)NC(=O)[C@H](CC(C)C)NC1=O [Example 31, cyclo(-DTrp-DAsp-Pro-DIle-Leu-)] (cyclo(L[dW][dD]P[dI])) | –
9 | 84 | CC(C)C[C@@H]1NC(=O)[C@@H](C(C)C)NC(=O)[C@@H]2CCCN2C(=O)[C@@H](CC(=O)O)NC(=O)[C@@H](Cc2cn(C=O)c3ccccc23)NC1=O [Example 51, cyclo(-DTrp(CHO)-DAsp-Pro-DVal-Leu-)] (cyclo(L[dW](For)[dD]P[dV])) | –
10 | 77 | CC(C)C[C@@H]1NC(=O)[C@@H](C(C)C)NC(=O)[C@H](Cc2ccc(O)cc2)NC(=O)[C@@H](CC(=O)O)NC(=O)[C@@H](Cc2c[nH]c3ccccc23)NC1=O [Example 16, cyclo(-DTrp-DAsp-Tyr-DVal-Leu-)] (cyclo(L[dW][dD]Y[dV])) | –
11 | 35 | COC(=O)Cn1cc(C[C@H]2NC(=O)[C@H](CC(C)C)NC(=O)[C@@H](C(C)C)NC(=O)[C@@H]3CCCN3C(=O)[C@@H](CC(=O)O)NC2=O)c2ccccc21 [Example 90, cyclo(-DTrp(CH2 COOCH3)-DAsp-Pro-DVal-Leu-)] (cyclo(L[X6][dD]P[dV])) | –

The next lines start with the molecule.

Row | Molecule | inhibition at 1.1 µM [1] [%] | further results
12 | cyclo(-DTrp(CHO)-DAsp-Met(O)-DVal-Leu-) [Example 77] | – | 125I-endothelin-1 binding inhibition, Inhibition (%) [1]: 78%
13 | CC(C)C[C@@H]1NC(=O)[C@@H](C(C)C)NC(=O)CCNC(=O)[C@@H](CC(=O)O)NC(=O)[C@@H](Cc2c[nH]c3ccccc23)NC1=O [Example 66, cyclo(-DTro-DAsp-β-Ala-DVal-Leu-)] (cyclo(L[dW][dD][βAla][dV])) | 38 | –
14 | CC(C)C[C@@H]1NC(=O)[C@@H](C(C)(C)S)NC(=O)[C@@H]2CCCN2C(=O)[C@@H](CC(=O)O)NC(=O)[C@@H](Cc2c[nH]c3ccccc23)NC1=O [Example 60, cyclo(-DTrp-DAsp-Pro-DPen-Leu-)] (cyclo(L[dW][dD]P[dPen])) | 79 | –
15 | CC(C)C[C@@H]1NC(=O)[C@@H](CC(=O)O)NC(=O)[C@@H](Cc2c[nH]c3ccccc23)NC(=O)[C@H](CC(C)C)NC(=O)[C@@H](C(C)C)NC1=O [Example 6, cyclo(-DTrp-DAsp-Leu-DVal-Leu-)] (cyclo(L[dV]L[dW][dD])) | 72 | –
16 | CC(C)C[C@@H]1NC(=O)[C@@H](C(C)C)NC(=O)[C@H](CCCCNC=O)NC(=O)[C@@H](CC(=O)O)NC(=O)[C@@H](Cc2c[nH]c3ccccc23)NC1=O [Example 57, cyclo(-DTrp-DAsp-Lys(CHO)-DVal-Leu-)] (cyclo(K(For)[dV]L[dW][dD])) | 65 | –
17 | CC(C)C[C@@H]1NC(=O)[C@@H](C(C)C)NC(=O)[C@@H]2CCCCN2C(=O)[C@@H](CC(=O)O)NC(=O)[C@@H](Cc2c[nH]c3ccccc23)NC1=O [Example 47, cyclo(-DTrp-DAsp-Pip-DVal-Leu-)] (cyclo(L[dW][dD][Pip][dV])) | 89 | –
18 | CNC(=O)Cn1cc(C[C@H]2NC(=O)[C@H](CC(C)C)NC(=O)[C@@H](C(C)C)NC(=O)[C@@H]3CCCN3C(=O)[C@@H](CC(=O)O)NC2=O)c2ccccc21 [Example 92, cyclo(-DTrp(CH2 CONHCH3)-DAsp-Pro-DVal-Leu-)] (cyclo(L[X2][dD]P[dV])) | 28 | –
19 | COC(=O)n1cc(C[C@H]2NC(=O)[C@H](CC(C)C)NC(=O)[C@@H](C(C)C)NC(=O)[C@@H]3CCCN3C(=O)[C@@H](CC(=O)O)NC2=O)c2ccccc21 [Example 86, cyclo(-DTrp(COOCH3)-DAsp-Pro-DVal-Leu-)] (cyclo(L[dW](Moc)[dD]P[dV])) | 90 | –
20 | CC(C)C[C@@H]1NC(=O)[C@@H](C(C)C)NC(=O)[C@H](CC(=O)O)NC(=O)[C@@H](CCC(=O)O)NC(=O)[C@@H](Cc2c[nH]c3ccccc23)NC1=O [Example 9, cyclo(-DTrp-DGlu-Asp-DVal-Leu-)] (cyclo(D[dV]L[dW][dE])) | 30 | –
21 | cyclo(-DTrp(CHO)-DGlu-Ala-DaIle-Leu-) [Example 52] | – | 125I-endothelin-1 binding inhibition, Inhibition (%) [1]: 64%
22 | CC(C)C[C@@H]1NC(=O)[C@@H](c2ccccc2)NC(=O)[C@@H]2CCCN2C(=O)[C@@H](CC(=O)O)NC(=O)[C@@H](Cc2c[nH]c3ccccc23)NC1=O [Example 34, cyclo(-DTrp-DAsp-Pro-DPhg-Leu-)] (cyclo(L[dW][dD]P[dPhg])) | 83 | –
23 | CCCC[C@H]1NC(=O)[C@@H]2CCCN2C(=O)[C@@H](CC(=O)O)NC(=O)[C@@H](Cc2c[nH]c3ccccc23)NC(=O)[C@H](CC(C)C)NC1=O [Example 33, cyclo(-DTrp-DAsp-Pro-DNle-Leu-)] (cyclo(L[dW][dD]P[dNle])) | 77 | –
24 | CC(C)C[C@@H]1NC(=O)[C@@H](C(C)C)NC(=O)[C@H](CCCCN)NC(=O)[C@@H](CC(=O)O)NC(=O)[C@@H](Cc2c[nH]c3ccccc23)NC1=O [Example 4, cyclo(-DTrp-DAsp-Lys-DVal-Leu-)] (cyclo(K[dV]L[dW][dD])) | 74 | –
25 | CC(C)C[C@@H]1NC(=O)[C@@H](c2cccs2)NC(=O)CN(CC(=O)O)C(=O)[C@@H](CC(=O)O)NC(=O)[C@@H](Cc2c[nH]c3ccccc23)NC1=O [Example 83, cyclo(-DTrp-DAsp-CmGly-DThg-Leu-)] | 82 | –
26 | CC(C)C[C@@H]1NC(=O)[C@@H](C(C)C)NC(=O)[C@H](CS(=O)(=O)O)NC(=O)[C@@H](CS(=O)(=O)O)NC(=O)[C@@H](Cc2c[nH]c3ccccc23)NC1=O [Example 42, cyclo(-DTrp-DCys(O3 Na)-Cys(O3 Na)-DVal-Leu-)] (cyclo([Cya][dV]L[dW][dCya])) | – | inhibition at 1.1 µM: 79%
27 | CC(C)C[C@@H]1NC(=O)[C@@H](C(C)C)NC(=O)CNC(=O)[C@@H](CC(=O)O)NC(=O)[C@@H](Cc2c[nH]c3ccccc23)NC1=O [Example 11, cyclo(-DTrp-DAsp-Gly-DVal-Leu-)] (cyclo(G[dV]L[dW][dD])) | 74 | –
28 | cyclo(-DTrp-DCys(O3 Na)-Pro-DThg-Leu-) [Example 76] | – | 125I-endothelin-1 binding inhibition, Inhibition (%) [1]: 84%

Source: patent US5114918A, “Endothelin antagonistic cyclic pentapeptides” (Banyu Pharmaceutical Co., Ltd., priority 1989, dated 1992)
